This note sets out measurements from patent US11077090B2, “Compounds and compositions and uses thereof” (Sunovion Pharmaceuticals Inc., priority 2016, dated 2021).

Bounds are passed on as bounds.

One assay relates to compound-treated mice. Put plainly: Neuropharmacological assay (SmartCube): behavioral activity signature and minimal effective dose. The following applies: MED = dose having 50% or more total activity. It counts as in vivo. The procedure, abridged: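 Mice dosed i.p. 15 min before test, compound in N-methyl-2-pyrrolidone/PEG/propylene glycol, 3 doses; video-captured behavior matched to reference-drug signatures, giving per-class probabilities at most efficacious dose. MED from doses typically 0.3–30 mpk, defined as lowest dose with ≥50% total activity.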
Turning to `CN[C@@H]1COCc2cccc(Cl)c21` [Example 145], the “Potency: minimal effective dose (MED)” value was “C (>10 to ≤30 mpk)”.

Still in this assay, the particulars now being: Mus musculus, ip, MED = dose having 50% or more total activity, read-out: Potency: minimal effective dose (MED).
`Cc1ccc2c(c1C)[C@H](N)COC2` [Example 135]: the minimal effective dose (usually the lowest level tested that produced the effect sought) was less than 3 mg/kg.
As to `Cc1ccc2c(c1C)[C@@H](N)COC2` [Example 136], the minimal effective dose was 3 to 10 mg/kg.
The same measure, in the same setting: to `CN[C@@H]1COCc2ccc(OC)cc21` [Example 139] belongs 3 to 10 mg/kg.
On the same count and under the same terms, to `CN[C@H]1COCc2ccc(OC)cc21` [Example 140] belongs 10 to 30 mg/kg.
Consider `CN[C@@H]1COCc2ccc(C)cc21` [Example 141], for which the minimal effective dose was in the range of 3 to 10 mg/kg.
With `CN[C@H]1COCc2ccc(C)cc21` [Example 142], the minimal effective dose lay in the range of 3 to 10 mg/kg.
`CN[C@@H]1COCc2ccc(C)c(C)c21` [Example 143]: the minimal effective dose was 3 to 10 mg/kg.
Regarding `CN[C@H]1COCc2ccc(C)c(C)c21` [Example 144], the minimal effective dose was 3 to 10 mg/kg.
With `CN[C@H]1COCc2cccc(Cl)c21` [Example 146], the minimal effective dose fell in the range of 3 to 10 mg/kg.
Take `CN[C@@H]1COCc2ccc(Cl)c(Cl)c21` [Example 147]: the minimal effective dose was 3 to 10 mg/kg.
Turning to `CN[C@H]1COCc2ccc(Cl)c(Cl)c21` [Example 148], the minimal effective dose was 3 to 10 mg/kg.
Regarding `CN[C@@H]1COCc2c(Cl)cccc21` [Example 149], the minimal effective dose is less than 3 mg/kg.

Still in this assay, the particulars now being: i.p. 15 min before test, most efficacious dose(s).
In the case of `Cc1ccc2c(c1C)[C@H](N)COC2` [Example 135], the “AD: ADHD (probability of activity signature)” value (from here on “AD: ADHD”) is “+ (LOQ ≤ + <5%)”, the “AG: analgesic (probability of activity signature)” value (shortened to “AG: analgesic”) is “++ (5% ≤ ++ <25%)”, the “AX: anxiolytic (probability of activity signature)” value (“AX: anxiolytic” for short) was “+++ (25% ≤ +++ <50%)” and the “CE: cognitive enhancer (probability of activity signature)” value (“CE: cognitive enhancer” for short) was “++ (5% ≤ ++ <25%)”. Besides, the “DP: anti-depressant (probability of activity signature)” value (“DP: anti-depressant” for short) was “++ (5% ≤ ++ <25%)”, the “MS: mood stabilizer (probability of activity signature)” value (from here on “MS: mood stabilizer”) is “+ (LOQ ≤ + <5%)”, the “PS: anti-psychotic (probability of activity signature)” value (from here on “PS: anti-psychotic”) is on record as “++ (5% ≤ ++ <25%)” and the “SD: sedative hypnotic (probability of activity signature)” value (“SD: sedative hypnotic” for short) was “++ (5% ≤ ++ <25%)”. Further, the “UN: uncharacterized CNS activity (probability of activity signature)” value (“UN: uncharacterized CNS activity” below) is reported as “+++ (25% ≤ +++ <50%)”.
Regarding `Cc1ccc2c(c1C)[C@@H](N)COC2` [Example 136], the “AD: ADHD” value is “+ (LOQ ≤ + <5%)”, the “AG: analgesic” value was “++ (5% ≤ ++ <25%)”, the “AX: anxiolytic” value is given as “++ (5% ≤ ++ <25%)” and the “CE: cognitive enhancer” value is recorded as “++ (5% ≤ ++ <25%)”. Also, the “DP: anti-depressant” value is recorded as “++ (5% ≤ ++ <25%)”, the “MS: mood stabilizer” value was “+ (LOQ ≤ + <5%)”, the “PS: anti-psychotic” value is recorded as “++ (5% ≤ ++ <25%)” and the “SD: sedative hypnotic” value is on record as “+ (LOQ ≤ + <5%)”. Besides, the “UN: uncharacterized CNS activity” value is listed as “+++ (25% ≤ +++ <50%)”.
Consider `CN[C@@H]1COCc2ccc(OC)cc21` [Example 139], for which the “AD: ADHD” value is listed as “+ (LOQ ≤ + <5%)”, the “AG: analgesic” value is “++ (5% ≤ ++ <25%)”, the “AX: anxiolytic” value is recorded as “++ (5% ≤ ++ <25%)” and the “CE: cognitive enhancer” value is on record as “++ (5% ≤ ++ <25%)”. For the same compound, the “DP: anti-depressant” value is on record as “++ (5% ≤ ++ <25%)”, the “MS: mood stabilizer” value is reported as “+ (LOQ ≤ + <5%)”, the “PS: anti-psychotic” value is “++ (5% ≤ ++ <25%)” and the “SD: sedative hypnotic” value was “+ (LOQ ≤ + <5%)”. Further, the “UN: uncharacterized CNS activity” value was “+++ (25% ≤ +++ <50%)”.
In the case of `CN[C@H]1COCc2ccc(OC)cc21` [Example 140], the “AD: ADHD” value is recorded as “+ (LOQ ≤ + <5%)”, the “AG: analgesic” value is “++ (5% ≤ ++ <25%)”, the “AX: anxiolytic” value is given as “++ (5% ≤ ++ <25%)” and the “CE: cognitive enhancer” value was “++ (5% ≤ ++ <25%)”. For the same compound, the “DP: anti-depressant” value is recorded as “++ (5% ≤ ++ <25%)”, the “MS: mood stabilizer” value is listed as “++ (5% ≤ ++ <25%)”, the “PS: anti-psychotic” value is on record as “+++ (25% ≤ +++ <50%)” and the “SD: sedative hypnotic” value is given as “+ (LOQ ≤ + <5%)”. In addition, the “UN: uncharacterized CNS activity” value is recorded as “+ (LOQ ≤ + <5%)”.
Take `CN[C@@H]1COCc2ccc(C)cc21` [Example 141]: the “AD: ADHD” value was “+ (LOQ ≤ + <5%)”, the “AG: analgesic” value is “++ (5% ≤ ++ <25%)”, the “AX: anxiolytic” value is “+++ (25% ≤ +++ <50%)” and the “CE: cognitive enhancer” value is reported as “++ (5% ≤ ++ <25%)”. In addition, the “DP: anti-depressant” value is listed as “++ (5% ≤ ++ <25%)”, the “MS: mood stabilizer” value was “++ (5% ≤ ++ <25%)”, the “PS: anti-psychotic” value is listed as “++ (5% ≤ ++ <25%)” and the “SD: sedative hypnotic” value was “+ (LOQ ≤ + <5%)”. For the same compound, the “UN: uncharacterized CNS activity” value was “+++ (25% ≤ +++ <50%)”.
With `CN[C@H]1COCc2ccc(C)cc21` [Example 142], the “AD: ADHD” value is given as “+ (LOQ ≤ + <5%)”, the “AG: analgesic” value is “++ (5% ≤ ++ <25%)”, the “AX: anxiolytic” value is on record as “++ (5% ≤ ++ <25%)” and the “CE: cognitive enhancer” value is “++ (5% ≤ ++ <25%)”. For the same compound, the “DP: anti-depressant” value is reported as “++ (5% ≤ ++ <25%)”, the “MS: mood stabilizer” value is listed as “+ (LOQ ≤ + <5%)”, the “PS: anti-psychotic” value is on record as “+ (LOQ ≤ + <5%)” and the “SD: sedative hypnotic” value was “+ (LOQ ≤ + <5%)”. Besides, the “UN: uncharacterized CNS activity” value is listed as “++++ (50% ≤ ++++)”.
As for `CN[C@@H]1COCc2ccc(C)c(C)c21` [Example 143], the “AD: ADHD” value is listed as “+ (LOQ ≤ + <5%)”, the “AG: analgesic” value is “+++ (25% ≤ +++ <50%)”, the “AX: anxiolytic” value was “++ (5% ≤ ++ <25%)” and the “CE: cognitive enhancer” value is “++ (5% ≤ ++ <25%)”. Moreover, the “DP: anti-depressant” value is on record as “++ (5% ≤ ++ <25%)”, the “MS: mood stabilizer” value was “+ (LOQ ≤ + <5%)”, the “PS: anti-psychotic” value is “+ (LOQ ≤ + <5%)” and the “SD: sedative hypnotic” value was “++ (5% ≤ ++ <25%)”. In addition, the “UN: uncharacterized CNS activity” value is on record as “++ (5% ≤ ++ <25%)”.
`CN[C@H]1COCc2ccc(C)c(C)c21` [Example 144]: the “AD: ADHD” value is “+ (LOQ ≤ + <5%)”, the “AG: analgesic” value was “++ (5% ≤ ++ <25%)”, the “AX: anxiolytic” value is given as “++ (5% ≤ ++ <25%)” and the “CE: cognitive enhancer” value is “++ (5% ≤ ++ <25%)”. Also, the “DP: anti-depressant” value is reported as “++ (5% ≤ ++ <25%)”, the “MS: mood stabilizer” value is listed as “+ (LOQ ≤ + <5%)”, the “PS: anti-psychotic” value is on record as “++ (5% ≤ ++ <25%)” and the “SD: sedative hypnotic” value was “++ (5% ≤ ++ <25%)”. Also, the “UN: uncharacterized CNS activity” value is listed as “+++ (25% ≤ +++ <50%)”.
`CN[C@@H]1COCc2cccc(Cl)c21` [Example 145]: the “AD: ADHD” value is on record as “+ (LOQ ≤ + <5%)”, the “AG: analgesic” value is on record as “++ (5% ≤ ++ <25%)”, the “AX: anxiolytic” value is on record as “++ (5% ≤ ++ <25%)” and the “CE: cognitive enhancer” value is recorded as “++ (5% ≤ ++ <25%)”. The “DP: anti-depressant” value is “+ (LOQ ≤ + <5%)”, the “MS: mood stabilizer” value was “+ (LOQ ≤ + <5%)”, the “PS: anti-psychotic” value is given as “+ (LOQ ≤ + <5%)” and the “SD: sedative hypnotic” value is listed as “+ (LOQ ≤ + <5%)”. Moreover, the “UN: uncharacterized CNS activity” value is reported as “+++ (25% ≤ +++ <50%)”.
With `CN[C@H]1COCc2cccc(Cl)c21` [Example 146], the “AD: ADHD” value is on record as “+ (LOQ ≤ + <5%)”, the “AG: analgesic” value was “++ (5% ≤ ++ <25%)”, the “AX: anxiolytic” value was “+++ (25% ≤ +++ <50%)” and the “CE: cognitive enhancer” value was “++ (5% ≤ ++ <25%)”. Besides, the “DP: anti-depressant” value is recorded as “+ (LOQ ≤ + <5%)”, the “MS: mood stabilizer” value was “+ (LOQ ≤ + <5%)”, the “PS: anti-psychotic” value was “+ (LOQ ≤ + <5%)” and the “SD: sedative hypnotic” value is “+ (LOQ ≤ + <5%)”. Besides, the “UN: uncharacterized CNS activity” value is reported as “++ (5% ≤ ++ <25%)”.
As for `CN[C@@H]1COCc2ccc(Cl)c(Cl)c21` [Example 147], the “AD: ADHD” value is recorded as “+ (LOQ ≤ + <5%)”, the “AG: analgesic” value is on record as “++ (5% ≤ ++ <25%)”, the “AX: anxiolytic” value is reported as “++ (5% ≤ ++ <25%)” and the “CE: cognitive enhancer” value is reported as “+ (LOQ ≤ + <5%)”. Further, the “DP: anti-depressant” value is listed as “++ (5% ≤ ++ <25%)”, the “MS: mood stabilizer” value is recorded as “+ (LOQ ≤ + <5%)”, the “PS: anti-psychotic” value is “+ (LOQ ≤ + <5%)” and the “SD: sedative hypnotic” value is on record as “+ (LOQ ≤ + <5%)”. For the same compound, the “UN: uncharacterized CNS activity” value is “++++ (50% ≤ ++++)”.
For `CN[C@H]1COCc2ccc(Cl)c(Cl)c21` [Example 148], the “AD: ADHD” value is listed as “+ (LOQ ≤ + <5%)”, the “AG: analgesic” value is listed as “++ (5% ≤ ++ <25%)”, the “AX: anxiolytic” value is on record as “++ (5% ≤ ++ <25%)” and the “CE: cognitive enhancer” value is listed as “++ (5% ≤ ++ <25%)”. Moreover, the “DP: anti-depressant” value is recorded as “++ (5% ≤ ++ <25%)”, the “MS: mood stabilizer” value is reported as “++ (5% ≤ ++ <25%)”, the “PS: anti-psychotic” value is given as “++ (5% ≤ ++ <25%)” and the “SD: sedative hypnotic” value is recorded as “++ (5% ≤ ++ <25%)”. Also, the “UN: uncharacterized CNS activity” value was “+++ (25% ≤ +++ <50%)”.
For `CN[C@@H]1COCc2c(Cl)cccc21` [Example 149], the “AD: ADHD” value is “+ (LOQ ≤ + <5%)”, the “AG: analgesic” value was “++ (5% ≤ ++ <25%)”, the “AX: anxiolytic” value is reported as “++ (5% ≤ ++ <25%)” and the “CE: cognitive enhancer” value is listed as “++ (5% ≤ ++ <25%)”. The “DP: anti-depressant” value is “++ (5% ≤ ++ <25%)”, the “MS: mood stabilizer” value is “+ (LOQ ≤ + <5%)”, the “PS: anti-psychotic” value is on record as “+++ (25% ≤ +++ <50%)” and the “SD: sedative hypnotic” value is “++ (5% ≤ ++ <25%)”. The “UN: uncharacterized CNS activity” value is on record as “+++ (25% ≤ +++ <50%)”.
